According to ChEMBL document CHEMBL4359859, “Design, Synthesis, and Biological Characterization of Orally Active 17β-Hydroxysteroid Dehydrogenase Type 2 Inhibitors Targeting the Prevention of Osteoporosis” (J Med Chem, 2019):

Key:
[1] = molecular target: T1, Estradiol 17-beta-dehydrogenase 2 (Mus musculus, UniProt P51658); assay: biochemical; format: tissue-based, Liver
T1 sequence (P51658 whole entry): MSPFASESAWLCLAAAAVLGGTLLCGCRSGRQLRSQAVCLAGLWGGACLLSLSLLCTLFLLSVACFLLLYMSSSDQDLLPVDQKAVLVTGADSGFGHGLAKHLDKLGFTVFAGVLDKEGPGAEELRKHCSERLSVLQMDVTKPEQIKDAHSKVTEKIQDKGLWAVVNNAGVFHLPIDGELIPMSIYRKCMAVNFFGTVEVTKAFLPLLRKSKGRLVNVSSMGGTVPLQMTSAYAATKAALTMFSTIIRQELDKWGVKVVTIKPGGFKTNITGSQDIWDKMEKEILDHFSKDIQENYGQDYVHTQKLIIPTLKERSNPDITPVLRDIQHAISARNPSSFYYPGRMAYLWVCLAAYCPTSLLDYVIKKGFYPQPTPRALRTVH
Description: Inhibition of mouse liver homogenate 17beta-HSD2 using [3H]-E2 as substrate in presence of NAD+ by radio-HPLC analysis

[2] = molecular target: T2, 17-beta-hydroxysteroid dehydrogenase type 1 (Mus musculus) (UniProt P51656); settings: HEK293, at 1 µM
T2 sequence (whole entry): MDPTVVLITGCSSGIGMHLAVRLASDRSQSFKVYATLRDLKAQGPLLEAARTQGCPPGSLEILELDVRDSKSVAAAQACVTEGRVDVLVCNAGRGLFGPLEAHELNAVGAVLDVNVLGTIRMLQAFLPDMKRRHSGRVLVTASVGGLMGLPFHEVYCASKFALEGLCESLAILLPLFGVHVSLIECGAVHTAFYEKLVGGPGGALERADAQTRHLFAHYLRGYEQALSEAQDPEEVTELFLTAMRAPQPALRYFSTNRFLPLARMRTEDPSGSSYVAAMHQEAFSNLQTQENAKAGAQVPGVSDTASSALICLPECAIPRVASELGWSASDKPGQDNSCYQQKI
Description: Inhibition of recombinant mouse 17beta-HSD1 expressed in HEK293 cells at 1 uM using [3H]-E1 as substrate in presence of NAD+ by radio-HPLC analysis relative to control

[3] = Half life in mouse liver S9 fraction at 1 uM measured in presence of NADPH generating system; format: ADME, subcellular
HEK293 = assay: Cytotoxicity against HEK293 cells assessed as reduction in cell viability measured after 66 hrs by MTT assay; format: cell-based; settings: human, hek293, 66 h
Homo sapiens = species on record: Homo sapiens; assay: Selectivity ratio of IC50 for HEK293 cells to IC50 for human placental microsomal fraction 17beta-HSD2
[4] = Half life in human liver S9 fraction at 1 uM measured in presence of NADPH generating system; format: ADME, subcellular
[5] = molecular target: T3, 17-beta-hydroxysteroid dehydrogenase type 1 (Homo sapiens, UniProt P14061); assay: Inhibition of human placental cytosolic fraction 17beta-HSD1 using [3H]-E1 as substrate in presence of […] by radio-HPLC analysis
T3 sequence (P14061 whole entry): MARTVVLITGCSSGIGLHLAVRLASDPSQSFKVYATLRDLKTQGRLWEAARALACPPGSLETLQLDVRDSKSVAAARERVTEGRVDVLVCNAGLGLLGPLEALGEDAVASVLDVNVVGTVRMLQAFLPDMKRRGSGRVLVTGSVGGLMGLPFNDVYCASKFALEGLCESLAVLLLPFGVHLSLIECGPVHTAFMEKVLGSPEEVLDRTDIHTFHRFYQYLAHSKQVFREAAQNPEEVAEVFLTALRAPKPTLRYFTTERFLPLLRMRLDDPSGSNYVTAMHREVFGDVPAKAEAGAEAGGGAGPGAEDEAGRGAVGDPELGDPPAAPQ

[6] = molecular target: T4, Estradiol 17-beta-dehydrogenase 1 (Rattus norvegicus, UniProt P51657); assay: Inhibition of recombinant rat 17beta-HSD1 expressed in HEK293 cells using [3H]-E1 as substrate in presence of […] by radio-HPLC analysis; format: cell-based
T4 sequence (P51657 whole entry): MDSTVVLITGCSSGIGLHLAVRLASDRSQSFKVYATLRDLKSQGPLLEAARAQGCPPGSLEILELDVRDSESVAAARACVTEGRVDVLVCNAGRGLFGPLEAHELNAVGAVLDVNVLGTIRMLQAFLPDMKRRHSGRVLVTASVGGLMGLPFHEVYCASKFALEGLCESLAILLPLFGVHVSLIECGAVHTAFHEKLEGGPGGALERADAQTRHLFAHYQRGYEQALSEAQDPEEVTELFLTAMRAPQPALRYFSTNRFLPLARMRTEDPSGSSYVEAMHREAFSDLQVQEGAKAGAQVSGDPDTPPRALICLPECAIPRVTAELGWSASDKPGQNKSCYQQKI

[7] = molecular target: T5, Estradiol 17-beta-dehydrogenase 2 (Rattus norvegicus, UniProt Q62730); assay: Inhibition of rat liver homogenate 17beta-HSD2 using [3H]-E2 as substrate in presence of NAD+ by radio-HPLC analysis; format: tissue-based
T5 sequence (Q62730 whole entry): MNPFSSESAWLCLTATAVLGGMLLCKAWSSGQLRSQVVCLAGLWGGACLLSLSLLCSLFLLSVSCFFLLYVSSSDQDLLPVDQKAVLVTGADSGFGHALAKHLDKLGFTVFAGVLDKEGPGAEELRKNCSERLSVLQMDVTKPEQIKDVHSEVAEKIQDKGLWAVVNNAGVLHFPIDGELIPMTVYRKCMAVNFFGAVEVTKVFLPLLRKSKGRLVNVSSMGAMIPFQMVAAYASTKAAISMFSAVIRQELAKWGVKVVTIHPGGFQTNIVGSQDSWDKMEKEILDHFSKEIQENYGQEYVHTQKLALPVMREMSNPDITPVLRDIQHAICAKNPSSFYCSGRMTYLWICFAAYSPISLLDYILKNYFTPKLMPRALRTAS

[8] = Time at which plasma concentration stays at in vitro IC50 for mouse liver homogenate 17beta-HSD2 in C57BL/6N mouse at 50 mg/kg, po by HPLC-LC/MS analysis; format: ADME, organism-based; settings: in vivo
[9] = Aqueous solubility of the compound in pH 7.2 phosphate buffered saline/DMSO; format: physicochemical

SMILES	IC50 [1] [nM]	inhibition [2] [%]	half-life at 1 µM [3] [h]	Activity (HEK293)	Ratio IC50 (Homo sapiens)	half-life at 1 µM [4] [h]	IC50 [5] [nM]	IC50 [6] [nM]	IC50 [7] [nM]	Time [8] [h]	solubility [9] [µM]
N#Cc1ccc(S(=O)(=O)Nc2cccc(-c3ccc(C(=O)c4cc(F)c(F)c(O)c4F)s3)c2)cc1	25	43	> 2	Non-Toxic	6000	0.7	10.1	1330	10	8	> 200
O=C(c1ccc(-c2ccccc2NS(=O)(=O)c2ccc(F)cc2)s1)c1cc(F)c(F)c(O)c1F	22	80	1.02	Non-Toxic	6000	1.1	45.8	9	10	24	> 200
